Experiments:
Botrytis cinerea = assay: In vivo preventive test on Botrytis cinerea (grey mould); conditions: 500 ppm of active ingredient, preventive spray on gherkin or cabbage, evaluated 4 to 5 days after inoculation, 100% = no disease, read-out: efficacy
Experimental: (§1) The active ingredients were made soluble and homogenized in a mixture of Dimethyl sulfoxide/Acetone/Tween® 80 and then diluted in water to the desired concentration.
The young plants of gherkin or cabbage were treated by spraying the active ingredient prepared as described above. Control plants were treated only with an aqueous solution of Acetone/Dimethyl sulfoxide/Tween® 80.
After 24 hours, the plants were contaminated by spraying the leaves with an aqueous suspension of Botrytis cinerea spores. The contaminated gherkin plants were incubated for 4 to 5 days at 17° C. and at 90% relative humidity. The contaminated cabbage plants were incubated for 4 to 5 days at 20° C. and at 100% relative humidity.
The test was evaluated 4 to 5 days after the inoculation. 0% means an efficacy which corresponds to that of the control plants while an efficacy of 100% means that no disease was observed.

Sphaerotheca fuliginea = assay: In vivo preventive test on Sphaerotheca fuliginea (powdery mildew on cucurbits); conditions: Podosphaera fuliginea, 192 h; 500 ppm of active ingredient; preventive spray on gherkin; evaluated 8 days after inoculation; 100% = no disease; read-out: efficacy
Experimental: as §1
The young plants of gherkin were treated by spraying the active ingredient prepared as described above. Control plants were treated only with an aqueous solution of Acetone/Dimethyl sulfoxide/Tween® 80.
After 24 hours, the plants were contaminated by spraying the leaves with an aqueous suspension of Sphaerotheca fuliginea spores. The contaminated gherkin plants were incubated for 8 days at 20° C. and at 70-80% relative humidity.
The test was evaluated 8 days after the inoculation. 0% means an efficacy which corresponds to that of the control plants while an efficacy of 100% means that no disease was observed.

Septoria tritici = Septoria tritici in vitro cell test; type: cell-based; conditions: Zymoseptoria tritici, 168 h; 20 ppm of active ingredient; liquid culture, 7 days incubation, absorbance; read-out: efficacy (inhibition of fungal growth)
Experimental: (§2) [table] Fungicides were solubilized in DMSO and the solution used to prepare the required range of concentrations. The final concentration of DMSO used in the assay was ≤1%. A spore suspension of S. tritici was prepared and diluted to the desired spore density. Fungicides were evaluated for their ability to inhibit spore germination and mycelium growth in liquid culture assay. The compounds were added in the desired concentration to the culture medium with spores. After 7 days incubation, fungi-toxicity of compounds was determined by spectrometric measurement of mycelium growth. Inhibition of fungal growth was determined by comparing the absorbance values in wells containing the fungicides with the absorbance in control wells without fungicides.

Alternaria brassicae = assay: In vivo preventive test on Alternaria brassicae (leaf spot on radish or cabbage); conditions: 144 h, 500 ppm of active ingredient, preventive spray on radish or cabbage, evaluated 6 days after inoculation, 100% = no disease, read-out: efficacy
Experimental: as §1
The young plants of radish or cabbage were treated by spraying the active ingredient prepared as described above. Control plants were treated only with an aqueous solution of Acetone/Dimethyl sulfoxide/Tween® 80.
After 24 hours, the plants were contaminated by spraying the leaves with an aqueous suspension of Alternaria brassicae spores. The contaminated radish or cabbage plants were incubated for 6 days at 20° C. and at 100% relative humidity.
The test was evaluated 6 days after the inoculation. 0% means an efficacy which corresponds to that of the control plants while an efficacy of 100% means that no disease was observed.

Pyrenophora teres = assay: In vivo preventive test on Pyrenophora teres (net blotch on barley); conditions: 240 h, 500 ppm of active ingredient, preventive spray on barley, evaluated 10 days after inoculation, 100% = no disease, read-out: efficacy
Experimental: as §1
The young plants of barley were treated by spraying the active ingredient prepared as described above. Control plants were treated only with an aqueous solution of Acetone/Dimethyl sulfoxide/Tween® 80.
After 24 hours, the plants were contaminated by spraying the leaves with an aqueous suspension of Pyrenophora teres spores. The contaminated barley plants were incubated for 48 hours at 20° C. and at 100% relative humidity and then for 8 days at 20° C. and at 70-80% relative humidity.
The test was evaluated 10 days after the inoculation. 0% means an efficacy which corresponds to that of the control plants while an efficacy of 100% means that no disease was observed.

[1] = system: Colletotrichum lindemuthianum; assay: Colletotrichum lindemuthianum in vitro cell test; type: cell-based; conditions: 144 h, 20 ppm of active ingredient, liquid culture, 6 days incubation, absorbance, read-out: efficacy (inhibition of fungal growth)
Experimental: as §2, with “of C. lindemuthianum” for “of S. tritici”, “inhibit spores” for “inhibit spore”, “After 6” for “After 7”

Alternaria alternata = Alternaria alternata in vitro cell test; type: cell-based; conditions: 120 h, 20 ppm of active ingredient, liquid culture, 5 days incubation, absorbance, read-out: efficacy (inhibition of fungal growth)
Experimental: as §2, with “<1%.” for “≤1%.”, “A. alternata” for “S. tritici”, “5” for “7”

## COCCc1c(Cl)nnc(Oc2cccc(C(F)(F)F)c2)c1C(=O)NCC(F)(F)c1ccc(Br)cc1Cl [I-070, N-[2-(4-bromo-2-chloro-phenyl)-2,2-difluoro-ethyl]-6-chloro-5-(2-methoxyethyl)-3-[3-(trifluoromethyl)phenoxy]pyridazine-4-carboxamide]
Botrytis cinerea
  pest or weed control at 500 ppm: 90 to 100%
Sphaerotheca fuliginea
  pest or weed control at 500 ppm: 90 to 100%
Septoria tritici
  inhibition at 20 ppm: 90 to 100%
Alternaria brassicae
  pest or weed control at 500 ppm: 90 to 100%
Pyrenophora teres
  pest or weed control at 500 ppm: 90 to 100%
[1]
  inhibition at 20 ppm: 90 to 100%
Alternaria alternata
  inhibition at 20 ppm: 90 to 100%

## Cc1ccc(C(F)(F)CNC(=O)c2c(Oc3cccc(C(F)(F)F)c3)nnc(Cl)c2-c2cccnc2)c(C)c1 [I-550, 6-chloro-N-[2-(2,4-dimethylphenyl)-2,2-difluoro-ethyl]-5-(3-pyridyl)-3-[3-(trifluoromethyl)phenoxy]pyridazine-4-carboxamide]
Botrytis cinerea
  pest or weed control at 500 ppm: 90 to 100%
Sphaerotheca fuliginea
  pest or weed control at 500 ppm: 90 to 100%
Septoria tritici
  inhibition at 20 ppm: 90 to 100%
Alternaria brassicae
  pest or weed control at 500 ppm: 90 to 100%
[1]
  inhibition at 20 ppm: 90 to 100%
Alternaria alternata
  inhibition at 20 ppm: 90 to 100%

## Cc1ccc(C(F)(F)CNC(=O)c2c(Oc3cccc(Cl)c3)nnc(Cl)c2C)c(C)c1 [I-790, 6-chloro-3-(3-chlorophenoxy)-N-[2-(2,4-dimethylphenyl)-2,2-difluoro-ethyl]-5-methyl-pyridazine-4-carboxamide]
Botrytis cinerea
  pest or weed control at 500 ppm: 90 to 100%
Sphaerotheca fuliginea
  pest or weed control at 500 ppm: 90 to 100%
Septoria tritici
  inhibition at 20 ppm: 70 to 79%
Alternaria brassicae
  pest or weed control at 500 ppm: 90 to 100%
[1]
  inhibition at 20 ppm: 90 to 100%
Alternaria alternata
  inhibition at 20 ppm: 90 to 100%

Reference: US12414565B2, “Pyridazine (THIO)amides as fungicidal compounds” (Bayer Aktiengesellschaft, priority 2018, dated 2025)
